# Reference: US7704976B2, “Use of N-acetyl-D-glucosamine for preparing medicines for urogenital tract infection's treatment and prevention” (Third Military Medical University, Chinese People's …, priority 2002, dated 2010)
# Key:
# Proteus Mirabilis = experiment: Promoting wave test (bio-wave model on LB plate); assay type: cell-based; conditions: final concentration of 0.5% on LB plate, 37° C.
# From the text: 1. […] 1.3 Experimental Method:
# [1] = in vivo
# From the text: II. Toxicological Test of the Compound of Formula (I), Including:
# • 1. Acute toxicity test: including tests of oral administration, intravenous injection administration, and maximum limit amount for administration. • 2. Ames test; • 3. Micronucleus test of mouse bone marrow cell; • 4. Abnormality test of mouse sperm; • 5. Aberration test of mouse testis chromosome; • 6. Chronic lethal test; • 7. Subchronic toxicity (feed for 90 days) test; • 8. Traditional deformity-inducing test.
# bacillus pyocyaneus = experiment: Test of effect for suppressing bacillus pyocyaneus transplantation on skin
# From the text: (§1) III. Tests of Effect for Suppressing Bacterial Transplantation
# (§2) • 1. Test of effect for suppressing bacillus pyocyaneus transplantation on skin • 2. Test of suppressing bacteria
# bacteria = experiment: Test of suppressing bacteria; assay type: cell-based
# From the text: as §1, §2
# Gonorrhea = experiment: Clinic test, gonorrhea patients; assay type: in vivo, human; conditions: 2% aerosol topically sprayed to infected areas
# Method: (§3) • 1. 170 patients suffering various venereal diseases were picked out, including 50 patients suffering gonorrhea, 50 patients suffering syphilis, 20 patients suffering condyloma acuminatum virus infection, 40 patients suffering trichomonas vaginalis infection, and 10 patients suffering candida albicans. 2% N-acetyl-D-glucosamine aerosol was topically sprayed to infected areas, and the effects of the compound of formula (I) for treatment of urogenital tract infections were determined by smearing and microscopic examination, and by isolation and culture.
# (§4) Observation of therapeutical effect of N-acetyl-D-glucosamine for treatment of urogenital tract infections
# Syphilis = experiment: Clinic test, syphilis patients; assay type: in vivo, human; conditions: 2% aerosol topically sprayed to infected areas
# Method: as §3, §4
# [2] = system: condyloma acuminatum virus infection; experiment: Clinic test, condyloma acuminatum virus infection patients; assay type: in vivo, human; conditions: 2% aerosol topically sprayed to infected areas
# Method: as §3, §4
# [3] = system: trichomonas vaginalis infection; experiment: Clinic test, trichomonas vaginalis infection patients; assay type: in vivo, human; conditions: 2% aerosol topically sprayed to infected areas
# Method: as §3, §4
# candida albicans = experiment: Clinic test, candida albicans patients; assay type: in vivo, human; conditions: 2% aerosol topically sprayed to infected areas
# Method: as §3, §4
# [4] = system: various urogenital tract infections
smiles,measurement,setting,value
CC(=O)N[C@H]1C(O)O[C@H](CO)[C@@H](O)[C@@H]1O (stereo partly drawn) [N-acetyl-D-glucosamine],promoting wave function (ring pattern versus control),Proteus Mirabilis,many fine waves on each ring emerged
same,dosage at which acute toxicosis reaction had not appeared,[1],more than 2 g/kg
same,transplantation and growth of bacillus pyocyaneus,bacillus pyocyaneus,suppressed the transplantation and growth of bacillus pyocyaneus
same,bactericidal or bacteriostasis effect,bacteria,essentially exhibited no bactericidal or bacteriostasis effect
same,Effective rate (%),Gonorrhea,90%
same,Ineffective rate (%),Gonorrhea,10%
same,Effective rate (%),Syphilis,60%
same,Ineffective rate (%),Syphilis,40%
same,Effective rate (%),[2],80%
same,Ineffective rate (%),[2],20%
same,Effective rate (%),[3],75%
same,Ineffective rate (%),[3],25%
same,Effective rate (%),candida albicans,90%
same,Ineffective rate (%),candida albicans,10%
same,effective rate for treatment of various urogenital tract infections,[4],79%
